Assay results taken from PubChem BioAssay (NCI).
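Where inhibition never reached the appropriate level, the endpoint shown equals the highest concentration tested. Otherwise, values were interpolated linearly from a five-concentration, 48-hour dose response in 96-well plates. TGI: concentration producing complete growth inhibition.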

Tests used:
Assay in all cases: NCI-60 cell line screen, 48 h
[1] = tested on: EKVX NSCLC
[2] = tested on: MDA-MB-231 breast
[3] = tested on: SK-OV-3 ovarian
[4] = tested on: MCF7 breast
[5] = tested on: LOX IMVI melanoma
[6] = tested on: MALME-3M melanoma
[7] = tested on: CCRF-CEM leukemia
[8] = tested on: K-562 leukemia
[9] = tested on: SN12C renal
[10] = tested on: OVCAR-5 ovarian
[11] = tested on: A549 NSCLC
[12] = tested on: T-47D breast
[13] = tested on: M14 melanoma
[14] = tested on: NCI-H226 lung
[15] = tested on: TK-10 renal
[16] = tested on: BT-549 breast
[17] = tested on: MDA-MB-435
[18] = tested on: HOP-62 NSCLC
[19] = tested on: ACHN renal
[20] = tested on: OVCAR-8 ovarian
[21] = tested on: U251 CNS
[22] = tested on: 786-0 renal
[23] = tested on: SR leukemia
[24] = tested on: NCI-H23 lung
[25] = tested on: KM12 colon
[26] = tested on: A498 renal
[27] = tested on: HOP-92 NSCLC
[28] = tested on: SNB-75 CNS
[29] = tested on: SNB-19 CNS
[30] = tested on: SF-268 CNS
[31] = tested on: SK-MEL-2 melanoma
[32] = tested on: MOLT-4 leukemia
[33] = tested on: SK-MEL-28 melanoma
[34] = tested on: NCI-H522 lung
[35] = tested on: HCT-15 colon
[36] = tested on: DU-145 prostate
[37] = tested on: HS 578T breast
[38] = tested on: PC-3 prostate
[39] = tested on: UACC-62 melanoma
[40] = tested on: UACC-257 melanoma
[41] = tested on: HCT-116 colon
[42] = tested on: NCI/ADR-RES ovarian
[43] = tested on: IGROV1 ovarian
[44] = tested on: OVCAR-4 ovarian
[45] = tested on: HT29 colon
[46] = tested on: SW-620 colon
[47] = tested on: SF-295 CNS
[48] = tested on: OVCAR-3 ovarian
[49] = tested on: UO-31 renal
[50] = tested on: HL-60(TB) leukemia
[51] = tested on: RXF 393 renal
[52] = tested on: RPMI-8226 leukemia
[53] = tested on: SK-MEL-5 melanoma
[54] = tested on: COLO 205 colon
[55] = tested on: CAKI-1 renal
[56] = tested on: MDA-N
[57] = tested on: HCC-2998 colon
[58] = tested on: NCI-H460 lung
[59] = tested on: SF-539 CNS

Measured: TGI

CN(C)C1C(=O)C(C(=O)NCN2CCCC2)=C(O)C2(O)C(=O)C3=C(O)c4c(O)cccc4C(C)(O)C3CC12 (configuration not stated)
48.7 µM: [6]
not listed: [57] | [58] | [59]
> 100 µM: all other assays above

CC#CC#C/C=C1/O[C@]2(CCC(OC(=O)CC(C)C)CO2)[C@@H]2O[C@H]12 (some centres not stated)
35.9 µM: [5]
43.7 µM: [46]
60.4 µM: [17]
66 µM: [27]
64.4 µM: [42]
44.7 µM: [19]
72.9 µM: [10]
72.5 µM: [38]
41.2 µM: [9]
52.5 µM: [31]
42.2 µM: [51]
33.3 µM: [41]
61.3 µM: [15]
36.5 µM: [49]
56.3 µM: [16]
62.7 µM: [2]
37.4 µM: [34]
50.3 µM: [52]
49.3 µM: [22]
53.1 µM: [35]
60 µM: [24]
42.9 µM: [50]
48.3 µM: [12]
54.6 µM: [21] | [32]
54.1 µM: [30]
54.3 µM: [56]
37.5 µM: [57]
66.6 µM: [39]
27.5 µM: [7]
84.3 µM: [1]
47.7 µM: [6] | [13]
35.4 µM: [45]
34.7 µM: [55]
52.3 µM: [48]
not listed: [14] | [33] | [47] | [53] | [54] | [59]
> 100 µM: all other assays above

COCOc1cc(OCOC)cc(C(=O)Oc2ccccc2)c1
not listed: [7]
> 100 µM: all other assays above
